In PMC3510187, “1-Anilino-8-Naphthalene Sulfonate (ANS) Is Not a Desirable Probe for Determining the Molten Globule State of Chymopapain” (PLoS ONE, 2012) one finds Kd data, which are given here for one compound.

The assay concerns the target T1, chymopapain (Carica papaya, UniProt P14080).
T1 construct: native mature enzyme from papaya latex, commercial (Sigma C8526), dialysed; monomer; acid-unfolded states in the assay
Briefly: isothermal titration calorimetry (two sets of independent sites). Particulars: read-out: High affinity binding site / K1 (M^-1). The text has this:
isothermal titration calorimetry (two sets of independent sites) on chymopapain
In general terms: ITC needs no label: the signal is the heat of the interaction.

T1 sequence (P14080 135-352): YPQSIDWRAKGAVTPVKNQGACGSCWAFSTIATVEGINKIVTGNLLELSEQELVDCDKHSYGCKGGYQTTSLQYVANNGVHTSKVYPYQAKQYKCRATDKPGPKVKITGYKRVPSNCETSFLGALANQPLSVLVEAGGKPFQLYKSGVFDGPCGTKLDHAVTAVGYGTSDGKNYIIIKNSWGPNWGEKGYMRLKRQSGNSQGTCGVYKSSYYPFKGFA

Turning to `O=S(=O)(O)c1cccc2cccc(Nc3ccccc3)c12` [1-anilino-8-naphthalene sulfonate], the Kd came out at 2940 nM.
